{"source": "patent US20020183297A1", "about": "“Pharmaceutical composition for the treatment of alopecia” (priority 2001, published 2002)", "key": {"[1]": {"tested_on": "hair growth on scalp of subjects with baldness / hair loss", "assay": "compositions tested in humans (topical application to scalp)", "type": "in vivo, human", "details": "summary statement; animals and humans / applied directly to scalp", "experimental": "The composition is applied to scalp ideally after thoroughly cleansing hair with soap and water to remove as much sebaceous secretions as possible. Sufficient quantity of the composition is applied to balding areas of scalp repeatedly, 1-2 times per day and applications continued for several days or weeks. It may be necessary, as it has been observed, to repeat the application frequently to keep the new follicular growth and to initiate further growth.\nFinally, the compositions were tested in humans. Ten subjects with advanced male pattern baldness used test preparation #1 and #2 (five subjects each) as described above for a period of three weeks. […] Three female subjects with thinning hair used composition #3 and #4 for a period of five weeks daily."}, "stem cells": {"tested_on": "stem cells", "assay": "tritiated thymidine labeling of stem cells (murine skin explants; label retaining cells in mice)", "type": "cell-based, mouse", "description": "The effectiveness of stimulant of stem cells can be readily evaluated using the technique of tritiated thymidine labeling. We studied the effectiveness of the invention on stimulation of stem cell populations by using the technique of tritiated thymidine labeling of stem cells. The effects of compositions described here were studied on explants of murine skin. Explant cultures were serially harvested at daily intervals for the first 4 days of exposure, and composition effects on ^3H-TdR (tritiated thymidine) incorporation assessed in accordance with standard techniques. Because of the slow- cycling nature of stem cells, repeated administration of tritiated thymidine is necessary. After the labeling, the cells are chased for four weeks wherein the stem cells retain the label longer and are thus quantitated comparatively to control.\nIn another series of experiments, a cohort of mice was continuously labeled for 2 weeks with ^3H- TdR and then allowed to rest for 4 weeks. Once labeled, cells that cycle slowly retained isotopes for an extended period of time. Twice daily, subcutaneous injections of ^3H-TdR were given to newborn mice over the first seven days of life resulting in the labeling of almost 100% of nuclei in mouse epidermis, hair follicles, sebaceous glands, fibroblasts, and endothelial cells. […]"}}, "data": [{"compound": "CC[C@H](CC[C@@H](C)[C@H]1CC[C@H]2[C@@H]3CC=C4C[C@@H](O)CC[C@]4(C)[C@H]3CC[C@]12C)C(C)C", "note": "[β-sitosterol]", "values": [{"measurement": "growth of hair", "setting": "[1]", "result": "enhance growth of hair"}, {"measurement": "activity of stem cells and/or bulge cells responsible for growth of hair", "setting": "stem cells", "result": "significantly enhances"}]}]}
